Values quoted from earlier work as cited in US7009061B2, “Diterpene compounds” (Nihon University, priority 2003, dated 2006).

Test system: P-388 cells

| Compound | depressive activities against P-388 cells in vivo |
| --- | --- |
| kanusiphorin B | depressive activities |
| CCCCCCCCCCCCCCCC(=O)OCC1=C[C@@H]2C(=O)[C@]3(C=C(C)[C@H](OC(=O)C(C)C(C)C)[C@@]3(O)[C@@H]1O)[C@H](C)C[C@]1(OC(=O)CCCCCCCCCCC)[C@H]2C1(C)C (some centres unmarked) [kansuiphorin A] | depressive activities |
